Measured values reported in PMC8847695 (Frontiers in Chemistry, 2022).

Columns and labels:
Type in all cases: binding
Conditions in all cases: 1 = hit, 0 = no hit
AAK1 (121-471) = AAK1 (121-471) (Homo sapiens, UniProt Q2M2I8); experiment: STD-NMR fragment screening, AAK1
Outline: (§1)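 Saturation-transfer difference NMR was run at 25°C and 700 MHz with 20 µM protein, two fragments at 1 mM each, and 10% DMSO-d6. On-resonance saturation was at 0.5–0.6 ppm and off-resonance at 40 ppm, with a 3 s Gaussian-pulse train. A hit required a difference-spectrum peak at least three times the local noise.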

CAMK1G (1-320) = target: T1, CAMK1G (1-320) (Homo sapiens, UniProt Q96NX5); experiment: STD-NMR fragment screening, CAMK1G
T1 construct: made in house; host or cells: E. coli BL21 (DE3) pLysS
T1 sequence (Q96NX5 1-320): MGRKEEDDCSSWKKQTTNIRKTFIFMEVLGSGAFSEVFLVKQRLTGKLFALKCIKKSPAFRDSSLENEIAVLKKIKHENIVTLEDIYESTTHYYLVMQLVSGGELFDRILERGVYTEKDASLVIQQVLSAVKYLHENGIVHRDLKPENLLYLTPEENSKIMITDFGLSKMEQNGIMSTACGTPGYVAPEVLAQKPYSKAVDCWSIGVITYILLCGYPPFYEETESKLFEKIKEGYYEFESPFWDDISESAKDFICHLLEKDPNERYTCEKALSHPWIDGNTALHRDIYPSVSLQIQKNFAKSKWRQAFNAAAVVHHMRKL
Outline: as §1

IDO1 (1-435) = target: T2, IDO1 (1-435) (Homo sapiens, UniProt P14902); experiment: STD-NMR fragment screening, IDO1
T2 construct: His-tag of pET15b with TEV site (thrombin site replaced) (cleaved yes); made in house; host or cells: E. coli Rosetta 2 (DE3) pLysS
T2 sequence (P14902 whole entry, the tested form may be a part): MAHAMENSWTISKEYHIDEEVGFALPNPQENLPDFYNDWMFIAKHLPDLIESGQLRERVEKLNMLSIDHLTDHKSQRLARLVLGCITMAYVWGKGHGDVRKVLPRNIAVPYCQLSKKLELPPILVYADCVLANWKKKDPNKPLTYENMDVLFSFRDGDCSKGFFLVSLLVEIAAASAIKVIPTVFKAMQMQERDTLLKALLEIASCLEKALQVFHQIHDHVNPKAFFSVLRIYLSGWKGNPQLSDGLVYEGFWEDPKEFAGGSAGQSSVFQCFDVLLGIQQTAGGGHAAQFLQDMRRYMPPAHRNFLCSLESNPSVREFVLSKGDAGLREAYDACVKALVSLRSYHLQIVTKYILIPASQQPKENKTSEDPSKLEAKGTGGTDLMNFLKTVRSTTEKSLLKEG
Outline: as §1

DOT1L (1-416) = target: T3, DOT1L (1-416) (Homo sapiens, UniProt Q8TEK3); experiment: STD-NMR fragment screening, DOT1L
T3 construct: made in house; host or cells: E. coli BL21 (DE3) pLysS
T3 sequence (Q8TEK3 1-416): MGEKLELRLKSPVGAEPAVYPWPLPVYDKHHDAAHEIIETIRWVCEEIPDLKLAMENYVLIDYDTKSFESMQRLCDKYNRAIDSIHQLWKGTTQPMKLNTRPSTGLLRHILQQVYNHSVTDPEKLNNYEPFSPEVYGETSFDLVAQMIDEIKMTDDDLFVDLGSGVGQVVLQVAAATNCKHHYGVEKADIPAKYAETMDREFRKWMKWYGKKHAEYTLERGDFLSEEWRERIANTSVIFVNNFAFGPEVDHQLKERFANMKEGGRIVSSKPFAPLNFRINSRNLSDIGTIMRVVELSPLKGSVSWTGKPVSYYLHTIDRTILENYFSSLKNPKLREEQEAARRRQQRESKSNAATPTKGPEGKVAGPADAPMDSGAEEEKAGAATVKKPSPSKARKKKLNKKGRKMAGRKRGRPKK
Outline: as §1

AAK1 (121-471), sequence (Q2M2I8 46-315 limits assumed): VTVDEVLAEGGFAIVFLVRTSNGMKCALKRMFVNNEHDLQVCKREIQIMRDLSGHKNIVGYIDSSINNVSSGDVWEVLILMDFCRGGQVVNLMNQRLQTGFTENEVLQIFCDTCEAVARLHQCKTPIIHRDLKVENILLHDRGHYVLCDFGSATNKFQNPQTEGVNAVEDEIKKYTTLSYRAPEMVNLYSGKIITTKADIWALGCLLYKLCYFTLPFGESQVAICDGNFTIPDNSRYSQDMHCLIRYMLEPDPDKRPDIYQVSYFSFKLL

| Compound | AAK1 (STD-NMR hit flag) (AAK1 (121-471)) | CAMK1G (STD-NMR hit flag) (CAMK1G (1-320)) | IDO1 (STD-NMR hit flag) (IDO1 (1-435)) | DOT1L (STD-NMR hit flag) (DOT1L (1-416)) |
| --- | --- | --- | --- | --- |
| OC1CCN(c2cc(Cl)ncn2)CC1 [Fragment B02297410] | 1 | 0 | 0 | 0 |
| O=C(O)c1c(Cl)cncc1Cl [Fragment B02297411] | 0 | 0 | 1 | 0 |
| Nc1nc(Cl)c(NC=O)c(Cl)n1 [Fragment B02297412] | 0 | 0 | 0 | 0 |
| O=C(O)c1cc(Br)c(O)cc1O [Fragment B02297413] | 1 | 0 | 1 | 0 |
| Clc1nsnc1N1CCOCC1 [Fragment B02297414] | 0 | 0 | 0 | 0 |
| Cn1cc(Br)c(N)n1 [Fragment B02297415] | 0 | 0 | 0 | 0 |
| CC(=O)Nc1ccc(Cl)c(C(=O)O)n1 [Fragment B02297416] | 0 | 0 | 0 | 0 |
| O=C(O)C(O)c1cccc(Cl)c1 (stereo not shown) [Fragment B02297417] | 0 | 0 | 0 | 0 |
| O=C(O)c1ncc(Cl)cc1Cl [Fragment B02297418] | 0 | 0 | 0 | 0 |
| Cc1[nH]c(=O)[nH]c(=O)c1I [Fragment B02297420] | 1 | 0 | 1 | 1 |
| [O-][n+]1ccc(Cl)cc1 [Fragment B02297421] | 0 | 0 | 0 | 0 |
| Brc1cnc(N2CCNCC2)nc1 [Fragment B02297422] | 1 | 1 | 0 | 0 |
| COc1ncc(C(=O)O)cc1Cl [Fragment B02297423] | 1 | 1 | 1 | 0 |
| Nc1cnccc1Br [Fragment B02297424] | 1 | 1 | 0 | 0 |
| O=c1ncc(Cl)c[nH]1 [Fragment B02297425] | 0 | 0 | 1 | 0 |
| O=C(O)c1ccncc1Br [Fragment B02297426] | 0 | 0 | 0 | 0 |
| O=c1cc(O)c(Cl)c[nH]1 [Fragment B02297427] | 0 | 0 | 1 | 0 |
| Cc1ccc(C(=O)O)c(Cl)n1 [Fragment B02297428] | 0 | 0 | 0 | 0 |
| COc1ncc(Cl)cc1C(=O)O [Fragment B02297429] | 0 | 0 | 1 | 0 |
